Test results as given in patent US20210283117A1, “PROPHYLACTIC OR THERAPEUTIC AGENT FOR PROSTATE CANCER” (KEIO UNIVERSITY, priority 2018, published 2021).
One block for each compound: values may come before it.

Assays:
DU145 cell lines [1] = experiment: Antitumor effect on CRPC model mice, tumor volume; type: in vivo
Text: 1×10^6 metastatic CRPC cell lines (DU145 cell lines) were subcutaneously inoculated to castrated male nude mice (BALB/C) to prepare subcutaneous tumor model mice. When the tumor size reached about 100 mm^3, the subcutaneous tumor model mice (CRPC model mice) were divided into three groups (control group, cabazitaxel administration group and cloperastine administration group). To the cloperastine administration group (n=5), a cloperastine hydrochloride (manufactured by Sigma-Aldrich Co. LLC) was orally administered daily at a dose of 12.5 mg/kg (body weight) per day in terms of cloperastine (“cloperastine administration group” in FIG. 7A). To the cabazitaxel administration group (n=5), cabazitaxel (manufactured by Carbosynth Limited) was intraperitoneally administered in a single dose of 10 mg/kg (body weight) (“cabazitaxel administration group” in FIG. 7A). On the other hand, any of the cloperastine hydrochloride and cabazitaxel was not administered to the control group (n=5) (control group in FIG. 7A).
The 1×10^6 DU145CR cell lines established in Example 5 were subcutaneously inoculated to castrated male nude mice (BALB/C) to prepare subcutaneous tumor model mice (cabazitaxel-resistant CRPC mice). When the tumor size reached about 100 mm^3, the subcutaneous tumor model mice were divided into three groups (control group, cabazitaxel administration group and cloperastine administration group). To the cloperastine administration group (n=5), a cloperastine hydrochloride (manufactured by Sigma-Aldrich Co. LLC) was orally administered daily at a dose of 12.5 mg/kg (body weight) per day in terms of cloperastine (“cloperastine administration group” in FIG. 7B). […] For the CRPC model mice and the cabazitaxel-resistant CRPC mice, tumor volumes were measured and an average value was calculated immediately after oral administration of the cloperastine hydrochloride (day 0) and 4 days, 8 days, 12 days and 16 days after the oral administration.

DU145CR cell lines [2] = experiment: Antitumor effect by use in combination with cabazitaxel, cabazitaxel-resistant CRPC mice, tumor volume; type: in vivo
Text: The 5×10^6 DU145CR cell lines established in Example 5 were subcutaneously inoculated to castrated male nude mice (BALB/C) to prepare subcutaneous tumor model mice (cabazitaxel-resistant CRPC mice). When the tumor size reached about 100 mm^3, the subcutaneous tumor model mice were divided into four groups (control group, cabazitaxel administration group, cloperastine administration group and cloperastine+cabazitaxel administration group). To the cabazitaxel administration group (n=5), cabazitaxel (manufactured by Carbosynth Limited) was intraperitoneally administered in a single dose of 10 mg/kg (body weight). To the cloperastine administration group (n=5), a cloperastine hydrochloride (manufactured by Sigma-Aldrich Co. LLC) was orally administered daily at a dose of 12.5 mg/kg (body weight) per day in terms of cloperastine. To the cloperastine+cabazitaxel administration group (n=5), the cloperastine hydrochloride was orally administered daily at a dose of 12.5 mg/kg (body weight) per day in terms of cloperastine, and cabazitaxel (manufactured by Carbosynth Limited) was intraperitoneally administered in a single dose of 10 mg/kg (body weight). […] For the cabazitaxel-resistant CRPC mice, tumor volumes were measured and an average value was calculated immediately after oral administration (day 0) and 4 days, 8 days and 12 days after the oral administration.

normal cells = experiment: Impact on growth of normal cells; type: cell-based; details: 1 μM
PC3 cell lines [3] = experiment: EMT-related gene mRNA expression, quantitative PCR; type: cell-based; details: 10 μM cloperastine, 24 hours, vs control group
Protocol: (§1) For confirming that the cloperastine species has a suppressive effect on EMT in metastatic CRPC cells, metastatic CRPC cell lines (DU145 cell lines and PC3 cell lines) were cultured in the presence of the cloperastine species, and the gene expression profiles of EMT-related factors were analyzed.
(§2) DU145 cell lines and PC3 cell lines were cultured for 24 hours in the presence of 10 μM cloperastine or without cloperastine (cloperastine treatment group and control group, respectively), and mRNA was then extracted with “RNeasy Mini kit” (manufactured by QIAGEN Company). From the extracted mRNA, cDNA was synthesized with “PrimeScript RT reagent Kit” (manufactured by Takara Bio Inc.). For analyzing the mRNA expression levels of genes encoding six kinds of factors (E-cadherin, vimentin, “Zinc finger protein SNAI1”, “Zinc finger protein SNAI2”, “Zinc finger E-box-binding homeobox 1” and “Zinc finger E-box-binding homeobox 2”) (CDH1 gene, VIM gene, SNAI1 gene, SNAI2 gene, ZEB1 gene and ZEB2 gene, respectively), quantitative PCR analysis was performed with the primer and TaqMan probe sets (TaqMan Gene Expression Assays) (manufactured by Applied Biosystems Company) shown in Table 1 below, and CFX96 Real-Time System (manufactured by Bio-Rad Laboratories, Inc).

DU145 cell lines [4] = experiment: EMT-related gene mRNA expression, quantitative PCR; type: cell-based; details: 10 μM cloperastine, 24 hours, vs control group
Protocol: as §1, §2

DU145 cell lines [5] = experiment: TUNEL method (apoptosis); type: cell-based; details: 10 μM, 24 hours, vs culture without cloperastine
Protocol: (§3) For confirming that the cloperastine species has a cell growth suppressive effect and an apoptosis inducing effect on CRPC and cabazitaxel-resistant CRPC, metastatic CRPC cell lines (DU145 cell lines and PC3 cell lines) were cultured in the presence of the cloperastine species, and analysis was performed by an immunohistological staining method using an antibody to a cell growth marker (Ki67), and a TUNEL (TdT-mediateddUTPnickendlabeling) method.
(§4) DU145 cell lines and DU145CR cell lines were cultured on 96-well plates, respectively, for 24 hours, and to a culture solution, a cloperastine hydrochloride (manufactured by Sigma-Aldrich Co. LLC) was added to 10 μM. The cell lines were further cultured for 24 hours, and the cells were then fixed with 4% paraformaldehyde. The fixed cells were subjected to blocking treatment with a 1% BSA (bovine serum albumin) solution, and primary antibody reaction treatment with a Ki67 antibody (manufactured by Dako Company) was performed overnight at 4° C. […] The immunohistological-stained cell sample was observed under a phase-contrast microscope (see FIG. 8A), and the ratio of Ki67-positive cells was calculated. […] The cell sample stained by the TUNEL method was observed under a phase-contrast microscope (see FIG. 9A), and the ratio of TUNEL-positive cells (cells undergoing apoptosis) was calculated.

DU145CR cell lines [6] = experiment: TUNEL method (apoptosis); type: cell-based; details: 10 μM, 24 hours, vs culture without cloperastine
Protocol: as §3, §4

DU145 cell lines [7] = experiment: Invasion assay, xCELLigence, Matrigel basement membrane matrix; type: cell-based; details: 1 μM cloperastine hydrochloride, 0 to 48 hours, vs control group
Protocol: For confirming the anti-prostate cancer effect of the cloperastine species, DU145 cell lines were cultured in the presence of the cloperastine species, and the invasiveness of the cell lines was analyzed (invasion assay).
To a culture solution added to each well of Real-Time Cell Analyzer xCELLigence (manufactured by ACEA Biosciences Inc.), a cloperastine hydrochloride (manufactured by Sigma-Aldrich Co. LLC) was added to 1 μM, and 4.0×10^4 DU145 cell lines were added. The cell lines were then cultured, and the number of cells passing through a Matrigel basement membrane matrix (manufactured by Corning Incorporated) was measured over time (0 to 48 hours) (cloperastine treatment group). As a control for comparison, DU145 cell lines were cultured in a culture solution free of a cloperastine hydrochloride, and the same experiment was conducted (control group).

DU145 cell lines [8] = experiment: Ki67 immunohistological staining; type: cell-based; details: 10 μM, 24 hours, vs culture without cloperastine
Protocol: as §3, §4

DU145CR cell lines [9] = experiment: Ki67 immunohistological staining; type: cell-based; details: 10 μM, 24 hours, vs culture without cloperastine
Protocol: as §3, §4

DU145CR cell lines [10] = experiment: Cell growth suppressive effect on cabazitaxel-resistant prostate cancer cell lines (WST-1), Example 7; type: cell-based; details: cloperastine 0.1, 1, 10 μM, vs culture without cloperastine
Protocol: (§5) DU145 cell lines and PC3 cell lines (these cell lines were obtained from ATCC [American Type Culture Collection]) were cultured on a 96-well plate for 24 hours. […] As a control, an experiment was also conducted in which DU145 cell lines and PC3 cell lines were cultured in a culture solution free of a cloperastine hydrochloride.
(§6) For confirming that the cloperastine species has a cell growth suppressive effect on enzalutamide-resistant prostate cancer and cabazitaxel-resistant prostate cancer, enzalutamide-resistant prostate cancer cell lines (C4-2AT6 cell lines) and cabazitaxel-resistant prostate cancer cell lines (DU145CR cell lines) were used to analyze the cell growth property in the presence of cloperastine species in accordance with the method described in Example 2.

C4-2AT6 cell lines = experiment: Cell growth suppressive effect on enzalutamide-resistant prostate cancer cell lines (WST-1), Example 7; type: cell-based; details: cloperastine 0.1, 1, 10 μM, vs culture without cloperastine
Protocol: as §5, §6

PC3 cell lines [11] = experiment: Cell growth suppressive effect, number of living cells (Premix WST-1), Example 2; type: cell-based; details: cloperastine 0.1, 1, 10 μM, 24 hours, vs culture without cloperastine
Protocol: (§7) For confirming that the cloperastine species has a cell growth suppressive effect on metastatic CRPC, metastatic CRPC cell lines (DU145 cell lines and PC3 cell lines) were cultured in the presence of the cloperastine species, and the cell growth property was analyzed.
as §5

DU145 cell lines [12] = experiment: as above; type: cell-based; details: cloperastine 0.1, 1, 10 μM, 24 hours, vs culture without cloperastine
Protocol: as §7, §5

DU145CR cell lines [13] = experiment: Antitumor effect on cabazitaxel-resistant CRPC mice, tumor volume; type: in vivo
Text: The 1×10^6 DU145CR cell lines established in Example 5 were subcutaneously inoculated to castrated male nude mice (BALB/C) to prepare subcutaneous tumor model mice (cabazitaxel-resistant CRPC mice). When the tumor size reached about 100 mm^3, the subcutaneous tumor model mice were divided into three groups (control group, cabazitaxel administration group and cloperastine administration group). To the cloperastine administration group (n=5), a cloperastine hydrochloride (manufactured by Sigma-Aldrich Co. LLC) was orally administered daily at a dose of 12.5 mg/kg (body weight) per day in terms of cloperastine (“cloperastine administration group” in FIG. 7B). To the cabazitaxel administration group (n=5), cabazitaxel (manufactured by Carbosynth Limited) was intraperitoneally administered in a single dose of 10 mg/kg (body weight) (“cabazitaxel administration group” in FIG. 7B). On the other hand, any of the cloperastine hydrochloride and cabazitaxel was not administered to the control group (n=5) (“control group” in FIG. 7B). For the CRPC model mice and the cabazitaxel-resistant CRPC mice, tumor volumes were measured and an average value was calculated immediately after oral administration of the cloperastine hydrochloride (day 0) and 4 days, 8 days, 12 days and 16 days after the oral administration.

DU145 cell lines [14] = experiment: In vitro analysis of cabazitaxel resistance, number of living cells (WST-1); type: cell-based; details: Homo sapiens, DU-145, 24 hours
DU145CR cell lines [15] = experiment: In vivo analysis of cabazitaxel resistance, subcutaneous tumor model mice (DU145CR vs DU145); details: cabazitaxel 10 mg/kg single intraperitoneal dose; 12 days after administration
Text: The 1×10^6 established DU145CR cell lines and 1×10^6 DU145 cell lines were subcutaneously inoculated to castrated male nude mice (BALB/C), respectively, to prepare subcutaneous tumor model mice (DU145CR mice and DU145 mice). When the tumor size reached about 200 mm^3, the subcutaneous tumor model mice were divided into four groups (DU145 mouse group, cabazitaxel administration DU145 mouse group, DU145CR mouse group and cabazitaxel administration DU145CR mouse group), and to the cabazitaxel administration DU145 mouse group and the cabazitaxel administration DU145CR mouse group (n=5 for each group), cabazitaxel (manufactured by Carbosynth Limited) was intraperitoneally administered in a single dose of 10 mg/kg (body weight). Cabazitaxel was not administered to the DU145 mouse group and the DU145CR mouse group (n=5 for each group). Immediately after oral administration (day 0) and 4 days, 8 days and 12 days after the oral administration, tumor volumes were measured and an average value was calculated.

DU145CR cell lines [16] = experiment: In vitro analysis of cabazitaxel resistance, number of living cells (WST-1); type: cell-based; details: 24 hours
Protocol: DU145CR cell lines were established by culturing DU145 cell lines in the presence of 0.2 nM cabazitaxel (manufactured by Carbosynth Limited) for about 2 years while gradually increasing the cabazitaxel concentration to 3 nM.

impact on growth of normal cells (normal cells): no impact on growth of normal cells
SMILES: Clc1ccc([C@H](OCCN2CCCCC2)c2ccccc2)cc1 (racemic) [cloperastine, 1-{2-[(RS)-(4-chlorophenyl) (phenyl)methoxy]ethyl}piperidine]
tumor volume vs control group (DU145 cell lines [1]; 12.5 mg/kg per day oral, daily): smaller than the tumor volume in the control group
tumor volume decrease level vs cabazitaxel administration group (DU145 cell lines [1]; cloperastine 12.5 mg/kg per day oral vs cabazitaxel 10 mg/kg single i.p.): higher than the tumor volume decrease level in the cabazitaxel administration group
tumor volume vs control group (DU145CR cell lines [2]; cloperastine 12.5 mg/kg per day oral, day 12, p<0.001): statistically significant difference between the cloperastine administration group and the control group
expression level of mRNA encoding E-cadherin (PC3 cell lines [3]; PC3 (FIG. 2B)): higher
expression levels of mRNA encoding vimentin, SNAI1, SNAI2, ZEB1, ZEB2 (PC3 cell lines [3]; PC3): all lower
expression levels of mRNA encoding vimentin, SNAI1, SNAI2, ZEB1, ZEB2 (DU145 cell lines [4]): all lower
ratio of TUNEL-positive cells (DU145 cell lines [5]): higher ratio of TUNEL-positive cells
ratio of TUNEL-positive cells (DU145CR cell lines [6]): higher ratio of TUNEL-positive cells
invasion of cells (DU145 cell lines [7]): significantly suppressed
ratio of Ki67-positive cells (DU145 cell lines [8]): lower ratio of Ki67-positive cells
ratio of Ki67-positive cells (DU145CR cell lines [9]): lower ratio of Ki67-positive cells
number of living cells (DU145CR cell lines [10]): significantly smaller number of living cells in a concentration-dependent manner
number of living cells (C4-2AT6 cell lines): significantly smaller number of living cells in a concentration-dependent manner
number of living cells (PC3 cell lines [11]): significantly smaller number of living cells in a concentration-dependent manner
number of living cells (DU145 cell lines [12]): significantly smaller number of living cells in a concentration-dependent manner
tumor volume (DU145CR cell lines [13]; 12.5 mg/kg per day oral, daily): considerably reduced the tumor volume

IC50 (DU145 cell lines [14]): 3.8 nM
IC50 (DU145CR cell lines [16]): 11 nM
SMILES: CO[C@H]1C(=O)[C@]2(C)[C@@H](OC)C[C@H]3OC[C@@]3(OC(C)=O)[C@H]2[C@H](OC(=O)c2ccccc2)[C@]2(O)C[C@H](OC(=O)[C@H](O)[C@@H](NC(=O)OC(C)(C)C)c3ccccc3)C(C)=C1C2(C)C [cabazitaxel]
tumor volume vs control group (DU145 cell lines [1]; cabazitaxel 10 mg/kg single intraperitoneal dose, day 16, p<0.01): statistically significant difference between the cabazitaxel administration group and the control group
tumor volume vs control group (DU145CR cell lines [2]; cabazitaxel 10 mg/kg single i.p., day 12, p>0.05): no statistically significant difference
tumor volume, cabazitaxel administration DU145CR mouse group vs cabazitaxel administration DU145 mouse group (DU145CR cell lines [15]): about twice
tumor volume (DU145CR cell lines [13]; cabazitaxel 10 mg/kg single intraperitoneal dose): hardly enabled suppression of an increase in tumor volume
